Key:
[1] = system: CD8+ T cells; assay: exogenous autologous normal donor restimulation assay, TNFα/IFNγ double positive CD8+ T cells by flow cytometry; assay type: cell-based, human; conditions: for Fold change (CD8+) vs. DMSO: maximum CD8+ T-cell response (TNFα and IFNγ); for Fold change (CD8+) vs. DMSO / Frequency (TNFα + IFNγ + CD8 T cells): donor independent, peptide pool 10 μg/mL, healthy donors; for Frequency (TNFα + IFNγ + CD8 T cells): maximum CD8+ T-cell response; for Immunogenic (yes/no): positive if CD8+ and/or CD4+ double positive TNFα/IFNγ frequency >=3-fold over DMSO and at least 0.01%
Procedure: (§1) The immunogenicity of neoantigens was assessed using the exogenous autologous normal donor restimulation assay. […] The lyophilized peptides were solubilized in 100% DMSO.
(§2) CD1c+ Dendritic Cells (CD1c+DC) isolated from human healthy PBMCs were thawed using media (IMDM (Gibco) supplemented with glutamine, HEPES, 5% human serum (Sigma), and 1× Pen-Strep). DC cells were resuspended in media supplemented with IL-4 (Peprotech, 20 ng/mL) and GM-CSF (Gibco, 20 ng/mL), plated in 6 well microplates, and rested overnight at 37° C. and 5% CO2 incubator. The following day, DC cells were counted and plated in a 96 well round bottom microplate at a concentration of 30,000 viable cells per well. Lyophilized neoantigen peptide pools (15-mer peptides with 8-mer overlapping peptide sequences) were solubilized in 100% DMSO with a stock concentration of 20 mg/mL Neoantigen peptides pools were added to DCs for a final concentration of 10 μg/mL and rested for 2 hours at 37° C. and 5% CO2 incubator. CEF Peptide Pool “Plus” (Cellular Technologies, Ltd.) was utilized as a positive control (each viral peptide at a final concentration of 4 ug/ml) and DMSO at the same final concentration (0.05%) as the experimental peptides was utilized as a negative control. After 2 hours, DC cells were irradiated with 50 gray of ionizing radiation. Autologous CD3+ Pan-T cells isolated from human normal PBMCs were thawed using media. Following irradiation, autologous Pan-T cells were added to the irradiated DCs at 300,000 viable cells per well. Human IL-15 (Peprotech) was added to all wells at final concentration of 10 ng/ml. Plates were incubated at 37° C. and 5% CO2 incubator for a total of 12 days. Media was refreshed every 2-3 days with IL-15 (R&D System, 10 ng/mL final concentration) and IL-2 (R&D systems, 10 IU/mL final concentration).
(§3) On Day 11, cells were re-stimulated with identical experimental peptide pools or controls, at same concentration as peptide stimulation on Day 1. Protein Inhibitor Cocktail (eBioscience) was added to every well and plate was incubated overnight for 14-16 hours at 37° C. and 5% CO2 incubator. On Day 12, cells were stained for surface and intracellular flow cytometry analysis. The cells were washed with PBS and stained with Live/Dead Fixable Aqua Dead Cell stain (Thermo-Fisher). Following the live/dead stain, cells were blocked using Biotin-Fre Fc Receptor Blocker (Accurate Chemical & Scientific Corp). Extracellular cellular flow panel ([…] per well in 50 μL) consisted of CD3 PerCP-Cy5.5 (Biolegend), CD4 BV421 (Biolegend), and CD8 APC-Cy7 (Biolegend). After extracellular staining, cells were fixed and permeabilized using Foxp3/Transcription Factor Staining Buffer Set (eBioscience) and stained for intracellular proteins (1:50 dilution) using TNFα FITC (R&D Systems) and IFNγ BV785 (Biolegend). Cells were washed and resuspended in stain buffer, analyzed, and recorded in a BD Celesta flow cytometer.
(§4) Flow cytometry analysis was conducted on FlowJo v10.6 software. Cells were gated on live, singlet, CD3+, CD4+ and CD8+ T cells. The CD8+ and CD4+ T cells were analyzed for TNFα and IFNγ expression.
(§5) The immunogenicity of neoantigens was first investigated in 9-16 healthy donors.

[2] = system: CD4+ T cells; assay: exogenous autologous normal donor restimulation assay, TNFα/IFNγ double positive CD4+ T cells by flow cytometry; assay type: cell-based, human; conditions: donor independent, peptide pool 10 μg/mL, healthy donors; for Fold change (CD4+) vs. DMSO: maximum CD4+ T-cell response (TNFα and IFNγ); for Frequency (TNFα + IFNγ + CD4 T cells): maximum CD4+ T-cell response
Procedure: as §1, §2, §3, §4, §5

Row | Sequence | Fold change (CD8+) vs. DMSO [1] | Frequency (TNFα + IFNγ + CD8 T cells) [1] | Immunogenic (yes/no) [1] | Fold change (CD4+) vs. DMSO [2] | Frequency (TNFα + IFNγ + CD4 T cells) [2]
1 | AAEQAGCMQCLI [FUS8, neoantigen, gene fusion TYSND1->AIFM2] | 6.27 fold | 0.12% | yes | 5.93 fold | 0.029%
2 | ALTVVPPGLRLDRVLLHLW [FUS27, neoantigen, gene fusion C17orf99->SYNGR2] | 19.77 fold | 0.43% | Yes | 10.37 fold | 0.021%
3 | AMAKKQRPDTAFWVQH [AS12, neoantigen, alternative splicing of IQGAP3] | 6.05 fold | 0.13% | Yes | 8.4 fold | 0.017%
4 | APILAAIGIGRLLCMDKIPATASLTP [FUS3, neoantigen, gene fusion PTH2R->LOC101927960] | 158.8 fold | 0.74% | yes | 5.02 fold | 0.025%
5 | APSCGVSRAICDRGCH [AS79, neoantigen, alternative splicing of FBN3] | 2.88 fold | 0.076% | Yes | 5.85 fold | 0.12%
6 | CDPAAPRAVSLPGRQGSEGGEGRGLGSRPAVLGRHSSGEGGGPWGELP [AS133, neoantigen, alternative splicing of HRAS] | 171.88 fold | 0.84% | Yes | 54.15 fold | 0.16%
7 | CLRPSLSLASRGFQNP [AS88, neoantigen, alternative splicing of UPK3B] | 3.13 fold | 0.063% | Yes | 15.85 fold | 0.062%
8 | EEDREKYRWMAPFVPGQVWTWEYFL [AS28, neoantigen, alternative splicing of HYDIN] | 8.82 fold | 0.15% | Yes | 12.43 fold | 0.17%
9 | FKIPKFSIVLSSNSAFRCDPLSSRPRCFGGSLEAP [AS27, neoantigen, alternative splicing of GTSE1] | 108.36 fold | 0.35% | Yes | 31.11 fold | 0.063%
10 | FLIVAEIVTLLIAFI [FUS20, neoantigen, gene fusion CMTM8->CMTM7] | 28.23 fold | 0.54% | Yes | 2.36 fold | 0.019%
11 | FQETWLAEDAAAGALSPCTIPTPPQPPLLSLPTSSGTRQ [AS97, neoantigen, alternative splicing of ETV4] | 433.66 fold | 1.34% | Yes | 6.12 fold | 0.15%
12 | GDPAKVVEIPRLL [AS31, neoantigen, alternative splicing of MECR] | 4.54 fold | 0.045% | Yes | 6.91 fold | 0.016%
13 | GFILIGWGAGNLVLETSSGFIKHRS [AS69, neoantigen, alternative splicing of PTH2R] | 260.42 fold | 1% | Yes | 9.21 fold | 0.011%
14 | GGLTLGARNTLTHGSPGPSQATVAVAPLSGRAAVSAAGGCVFLLLPACVPRRCHWIP [FUS16, neoantigen, gene fusion NDUFA11->FUT5] | 261.6 fold | 5.69% | yes | 12.58 fold | 0.045%
15 | GTMEVKSKKKQTTVPLVQTR [AS67, neoantigen, alternative splicing of PARD6B] | 6.36 fold | 0.17% | Yes | 3.15 fold | 0.028%
16 | HFECYHCEIRIPRKSNGIRGFLLTWRRDGNTSTSVQQTTSSL [FUS11, neoantigen, gene fusion AJUBA->HAUS4] | 3.3 fold | 0.071% | yes | 39.13 fold | 0.14%
17 | HFSRLCGPVSHLSAHLAHLR [AS119, neoantigen, alternative splicing of SMAD6] | 1.32 fold | 0.037% | Yes | 4.17 fold | 0.027%
18 | IGKGSFGKFLEDATHMV [AS36, neoantigen, alternative splicing of STK32C] | 7.44 fold | 0.45% | Yes | 3.36 fold | 0.04%
19 | IPPHLQWESTRQTEWISVREFHLESSLYP [AS61, neoantigen, alternative splicing of IGF2BP3] | 4.86 fold | 0.13% | Yes | 4.26 fold | 0.038%
20 | KHHLWALEAAWLSGRSPLSEPQLPLQPSGNSSSV [AS120, neoantigen, alternative splicing of STRA6] | 6.24 fold | 0.067% | Yes | 2.01 fold | 0.013%
21 | KLCSRQRPDCQPVDSRHGPILSIQHLISALHTGDG [AS123, neoantigen, alternative splicing of VWA2] | 115.04 fold | 1.09% | yes | 3.7 fold | 0.024%
22 | KNFITCFKGGHASAAEPRKGR [FUS22, neoantigen, gene fusion C8orf82->LRRC24] | 8.05 fold | 0.087% | Yes | 8.67 fold | 0.31%
23 | KRPMASEVSFILIQWLLKP [AS146, neoantigen, alternative splicing of PIP5K1A] | 24.2 fold | 0.26% | Yes | 8.88 fold | 0.037%
24 | LASGVPPPGLPWGPGPHLG [AS60, neoantigen, alternative splicing of HMCN2] | 265.02 fold | 1.9% | Yes | 4.3 fold | 0.019%

Reference: US11945881B2, “Neoantigens expressed in ovarian cancer and their uses” (Janssen Biotech, Inc., priority 2020, dated 2024)
